# Assays:
# Assay type in all cases: in vivo
# [1] = system: redroot pigweed (Amaranthus retroflexus, AMARE); test: Pre-emerge test, greenhouse herbicide activity screening; conditions: rating scale 0-100, 14 days after application
# Summary of the method: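 Sandy loam pots; pre-emerge: sown 1 d pre-spray, surface-watered after, then bottom-watered. Post-emerge: sown 8–21 d before, 2–3 leaf stage, + 0.25% v/v NIS, bottom-watered. Acetone, 187 l/ha track spray, 15–1000 g ai/ha. 0–100 injury score, day 14.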
# [2] = system: barnyardgrass (Echinochloa crus-galli, ECHCG); test: Post-emerge test, greenhouse herbicide activity screening; conditions: rating scale 0-100 (0 no damage, 100 complete death), 14 days after application
# Summary of the method: (§1)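 Compounds in acetone were track-sprayed at 15–1000 g ai/ha: pre-emergence onto soil sown the previous day, then top-watered to incorporate and later bottom-watered; post-emergence onto 2–3 leaf plants with 0.25% v/v surfactant, bottom-watered only. Ratings on a 0–100 phytotoxicity scale were taken at day 14.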
# [3] = system: sicklepod (Cassia obtusifolia, CASOB); test: as above; conditions: rating scale 0-100 (0 no damage, 100 complete death), 14 days after application
# Summary of the method: as §1
# [4] = system: redroot pigweed (Amaranthus retroflexus, AMARE); test: as above; conditions: rating scale 0-100 (0 no damage, 100 complete death), 14 days after application
# Summary of the method: as §1
# [5] = system: velvetleaf (Abutilon theophrasti, ABUTH); test: as above; conditions: rating scale 0-100 (0 no damage, 100 complete death), 14 days after application
# Summary of the method: as §1
# [6] = system: large crabgrass (Digitaria sanguinalis, DIGSA); test: as above; conditions: rating scale 0-100 (0 no damage, 100 complete death), 14 days after application
# Summary of the method: as §1
# [7] = system: green foxtail (Setaria viridis, SETVI); test: as above; conditions: rating scale 0-100 (0 no damage, 100 complete death), 14 days after application
# Summary of the method: as §1
# [8] = system: ivyleaf morningglory (Ipomoea hederacea, IPOHE); test: as above; conditions: rating scale 0-100 (0 no damage, 100 complete death), 14 days after application
# Summary of the method: as §1
# [9] = system: johnsongrass (Sorghum halepense, SORHA); test: as above; conditions: rating scale 0-100 (0 no damage, 100 complete death), 14 days after application
# Summary of the method: as §1
# [10] = system: common ragweed (Ambrosia artemisizfolia L., AMBEL); test: as above; conditions: rating scale 0-100 (0 no damage, 100 complete death), 14 days after application
# Summary of the method: as §1
# [11] = system: lambsquarters (Chenopodium album, CHEAL); test: as above; conditions: rating scale 0-100 (0 no damage, 100 complete death), 14 days after application
# Summary of the method: as §1
# [12] = system: field corn (Zea mays L., var. Dekalb 535, CORN); test: Pre-emerge test, crop safety; conditions: rating scale 0-100, 14 days after application
# Summary of the method: (§2)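 Plants grown in 10 cm pots of sandy loam mix received acetone-dissolved compounds through a moving flat-fan nozzle. Doses ranged from 15 to 1000 g ai/ha. Pre-emerge pots were seeded one day earlier, post-emerge pots 8–21 days earlier. Fourteen days on, each pot was graded 0–100 for damage.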
# [13] = system: upland rice (Oryza sp., var. Tebonnet, RICE); test: Pre-emerge test, crop safety; conditions: rating scale 0-100, 14 days after application
# Summary of the method: as §2
# [14] = system: barnyardgrass (Echinochloa crus-galli, ECHCG); test: Pre-emerge test, greenhouse herbicide activity screening; conditions: rating scale 0-100, 14 days after application
# Summary of the method: as §2
# [15] = system: sicklepod (Cassia obtusifolia, CASOB); test: as above; conditions: rating scale 0-100, 14 days after application
# Summary of the method: as §2
# [16] = system: velvetleaf (Abutilon theophrasti, ABUTH); test: as above; conditions: rating scale 0-100, 14 days after application
# Summary of the method: as §2
# [17] = system: large crabgrass (Digitaria sanguinalis, DIGSA); test: as above; conditions: rating scale 0-100, 14 days after application
# Summary of the method: as §2
# [18] = system: green foxtail (Setaria viridis, SETVI); test: as above; conditions: rating scale 0-100, 14 days after application
# Summary of the method: as §2
# [19] = system: ivyleaf morningglory (Ipomoea hederacea, IPOHE); test: as above; conditions: rating scale 0-100, 14 days after application
# Summary of the method: as §2
# [20] = system: johnsongrass (Sorghum halepense, SORHA); test: as above; conditions: rating scale 0-100, 14 days after application
# Summary of the method: as §2
# [21] = system: common ragweed (Ambrosia artemisizfolia L., AMBEL); test: as above; conditions: rating scale 0-100, 14 days after application
# Summary of the method: as §2
# [22] = system: lambsquarters (Chenopodium album, CHEAL); test: as above; conditions: rating scale 0-100, 14 days after application
# Summary of the method: as §2
# [23] = system: field corn (Zea mays L., var. Dekalb 535, CORN); test: Post-emerge test, crop safety; conditions: rating scale 0-100 (0 no damage, 100 complete death), 14 days after application
# Summary of the method: (§3)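 Each test used a mechanized track sprayer delivering 187 l/ha of acetone solution at 15–1000 g ai/ha. Post-emerge foliage at 2–3 leaves was treated with added 0.25% v/v non-ionic surfactant and bottom-watered only. Injury was assessed on day 14, where 100 means total kill.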
# [24] = system: upland rice (Oryza sp., var. Tebonnet, RICE); test: Post-emerge test, crop safety; conditions: rating scale 0-100 (0 no damage, 100 complete death), 14 days after application
# Summary of the method: as §3
smiles,measurement,setting,value
COc1c(Cl)cc(F)c(-n2c(=O)cc(C(F)(F)F)n(C)c2=O)c1CC(Cl)C(=O)OCC(F)(F)F (stereo not drawn) [14-21],"Pre-emerge herbicidal activity, phytotoxicity rating AMARE",[1]; 63 g ai/ha,60
same,"Pre-emerge herbicidal activity, phytotoxicity rating AMARE",[1]; 250 g ai/ha,95
same,"Post-emerge Herbicidal Activity, phytotoxicity rating ECHCG",[2]; Rate 63 g ai/ha,99
same,"Post-emerge Herbicidal Activity, phytotoxicity rating ECHCG",[2]; Rate 250 g ai/ha,100
same,"Post-emerge Herbicidal Activity, phytotoxicity rating CASOB",[3]; Rate 63 g ai/ha,30
same,"Post-emerge Herbicidal Activity, phytotoxicity rating CASOB",[3]; Rate 250 g ai/ha,60
same,"Post-emerge Herbicidal Activity, phytotoxicity rating AMARE",[4]; Rate 63 g ai/ha,90
same,"Post-emerge Herbicidal Activity, phytotoxicity rating AMARE",[4]; Rate 250 g ai/ha,100
same,"Post-emerge Herbicidal Activity, phytotoxicity rating ABUTH",[5]; Rate 63 g ai/ha,100
same,"Post-emerge Herbicidal Activity, phytotoxicity rating ABUTH",[5]; Rate 250 g ai/ha,95
same,"Post-emerge Herbicidal Activity, phytotoxicity rating DIGSA",[6]; Rate 63 g ai/ha,70
same,"Post-emerge Herbicidal Activity, phytotoxicity rating DIGSA",[6]; Rate 250 g ai/ha,98
same,"Post-emerge Herbicidal Activity, phytotoxicity rating SETVI",[7]; Rate 63 g ai/ha,10
same,"Post-emerge Herbicidal Activity, phytotoxicity rating SETVI",[7]; Rate 250 g ai/ha,40
same,"Post-emerge Herbicidal Activity, phytotoxicity rating IPOHE",[8]; Rate 63 g ai/ha,40
same,"Post-emerge Herbicidal Activity, phytotoxicity rating IPOHE",[8]; Rate 250 g ai/ha,50
same,"Post-emerge Herbicidal Activity, phytotoxicity rating SORHA",[9]; Rate 63 g ai/ha,10
same,"Post-emerge Herbicidal Activity, phytotoxicity rating SORHA",[9]; Rate 250 g ai/ha,70
same,"Post-emerge Herbicidal Activity, phytotoxicity rating AMBEL",[10]; Rate 63 g ai/ha,50
same,"Post-emerge Herbicidal Activity, phytotoxicity rating AMBEL",[10]; Rate 250 g ai/ha,95
same,"Post-emerge Herbicidal Activity, phytotoxicity rating CHEAL",[11]; Rate 63 g ai/ha,70
same,"Post-emerge Herbicidal Activity, phytotoxicity rating CHEAL",[11]; Rate 250 g ai/ha,95
same,"Pre-emerge phytotoxicity rating, crop damage CORN",[12]; 63 g ai/ha,0
same,"Pre-emerge phytotoxicity rating, crop damage CORN",[12]; 250 g ai/ha,70
same,"Pre-emerge phytotoxicity rating, crop damage RICE",[13]; 63 g ai/ha,0
same,"Pre-emerge phytotoxicity rating, crop damage RICE",[13]; 250 g ai/ha,20
same,"Pre-emerge herbicidal activity, phytotoxicity rating ECHCG",[14]; 63 g ai/ha,0
same,"Pre-emerge herbicidal activity, phytotoxicity rating ECHCG",[14]; 250 g ai/ha,20
same,"Pre-emerge herbicidal activity, phytotoxicity rating CASOB",[15]; 63 g ai/ha,0
same,"Pre-emerge herbicidal activity, phytotoxicity rating CASOB",[15]; 250 g ai/ha,10
same,"Pre-emerge herbicidal activity, phytotoxicity rating ABUTH",[16]; 63 g ai/ha,40
same,"Pre-emerge herbicidal activity, phytotoxicity rating ABUTH",[16]; 250 g ai/ha,100
same,"Pre-emerge herbicidal activity, phytotoxicity rating DIGSA",[17]; 63 g ai/ha,0
same,"Pre-emerge herbicidal activity, phytotoxicity rating DIGSA",[17]; 250 g ai/ha,70
same,"Pre-emerge herbicidal activity, phytotoxicity rating SETVI",[18]; 63 g ai/ha,0
same,"Pre-emerge herbicidal activity, phytotoxicity rating SETVI",[18]; 250 g ai/ha,0
same,"Pre-emerge herbicidal activity, phytotoxicity rating IPOHE",[19]; 63 g ai/ha,0
same,"Pre-emerge herbicidal activity, phytotoxicity rating IPOHE",[19]; 250 g ai/ha,0
same,"Pre-emerge herbicidal activity, phytotoxicity rating SORHA",[20]; 63 g ai/ha,0
same,"Pre-emerge herbicidal activity, phytotoxicity rating SORHA",[20]; 250 g ai/ha,35
same,"Pre-emerge herbicidal activity, phytotoxicity rating AMBEL",[21]; 63 g ai/ha,0
same,"Pre-emerge herbicidal activity, phytotoxicity rating AMBEL",[21]; 250 g ai/ha,40
same,"Pre-emerge herbicidal activity, phytotoxicity rating CHEAL",[22]; 63 g ai/ha,20
same,"Pre-emerge herbicidal activity, phytotoxicity rating CHEAL",[22]; 250 g ai/ha,75
same,Post-emerge phytotoxicity rating CORN (crop damage),[23]; Rate 63 g ai/ha,50
same,Post-emerge phytotoxicity rating CORN (crop damage),[23]; Rate 250 g ai/ha,100
same,Post-emerge phytotoxicity rating RICE (crop damage),[24]; Rate 63 g ai/ha,10
same,Post-emerge phytotoxicity rating RICE (crop damage),[24]; Rate 250 g ai/ha,45
